Reference: patent US8354414B2, “Substituted bicyclic pyrimidines” (Cephalon, Inc, priority 2006, dated 2013)
Like-named read-outs stand apart in the source and are kept apart here.

How the values were obtained:
[1] = molecular target: T1, CDK5/GST-p25 (Homo sapiens, UniProt Q00535); test: Inhibition of CDK5/GST-p25 kinase activity (ELISA with time-resolved fluorescence readout); type: biochemical
T1 construct: The final construct, encoding for full-length human CDK5; made in house; host or cells: Sf21 insect cells (baculovirus co-infection)
T1 sequence (Q00535 whole entry): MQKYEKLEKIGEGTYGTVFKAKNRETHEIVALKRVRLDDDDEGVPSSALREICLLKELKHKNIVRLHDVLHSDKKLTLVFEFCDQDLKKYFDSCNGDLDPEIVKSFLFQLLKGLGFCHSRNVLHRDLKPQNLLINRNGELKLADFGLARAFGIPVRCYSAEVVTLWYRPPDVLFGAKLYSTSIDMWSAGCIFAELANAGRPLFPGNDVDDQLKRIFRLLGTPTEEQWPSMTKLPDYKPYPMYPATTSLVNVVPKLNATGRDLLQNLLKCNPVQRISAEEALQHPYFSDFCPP
T1 sequence (Q15078 108-307 partner limits assumed): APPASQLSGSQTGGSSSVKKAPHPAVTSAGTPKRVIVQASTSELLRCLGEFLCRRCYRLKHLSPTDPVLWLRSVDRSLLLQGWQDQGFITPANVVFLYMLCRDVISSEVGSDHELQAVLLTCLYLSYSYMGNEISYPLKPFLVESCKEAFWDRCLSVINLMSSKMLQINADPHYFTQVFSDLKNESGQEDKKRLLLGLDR
In short: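 The substrate, GST-Rb(773-928), was immobilised on plates and phosphorylated for 20 min at 37 °C by 2 ng/ml CDK5/GST-p25 in HEPES pH 7.2 with 10 µM ATP and 10 mM MgCl2. Both proteins were human and co-expressed in insect cells. Ser-780 phosphorylation was read by europium time-resolved fluorescence and converted to IC50.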

[2] = molecular target: T2, His6-GSK-3β (Homo sapiens, UniProt P49841); test: Inhibition of His6-GSK-3β kinase activity (ELISA-based format, time-resolved fluorescence readout); type: biochemical; conditions: for IC50: read-out: GSK3β IC50
T2 construct: made in house; host or cells: Sf21 insect cells (baculovirus)
T2 sequence (P49841 2-419): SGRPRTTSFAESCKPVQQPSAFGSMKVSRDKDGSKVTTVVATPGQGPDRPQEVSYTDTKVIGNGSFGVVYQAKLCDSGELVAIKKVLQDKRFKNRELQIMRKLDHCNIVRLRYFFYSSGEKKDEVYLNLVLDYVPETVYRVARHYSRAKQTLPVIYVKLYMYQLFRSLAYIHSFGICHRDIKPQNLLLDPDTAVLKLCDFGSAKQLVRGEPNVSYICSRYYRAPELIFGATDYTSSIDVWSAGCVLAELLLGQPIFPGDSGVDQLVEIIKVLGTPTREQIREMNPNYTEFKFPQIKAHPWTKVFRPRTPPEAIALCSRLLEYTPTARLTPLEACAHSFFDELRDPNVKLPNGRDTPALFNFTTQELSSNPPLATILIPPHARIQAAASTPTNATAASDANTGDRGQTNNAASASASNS
In short: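 Plate-bound recombinant GST-Rb substrate was phosphorylated for 30 min at 37° C by baculovirus-expressed His6-GSK-3β (200 ng/ml) at 20 μM ATP, 10 mM MgCl2, 2.5% DMSO. Europium time-resolved fluorescence of anti-phospho-Ser780 Rb signal gave inhibition, fitted to IC50.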

| SMILES | IC50 ([1]; class symbols) | IC50 ([2]; class symbols) | melting point | inhibition at 10 µM [1] | IC50 ([2]; numeric bounds) | IC50 ([1]; numeric bounds) | GSK3β % @10 μM ([2]; @10 μM) |
| --- | --- | --- | --- | --- | --- | --- | --- |
| COCCn1cc2c(C3C(=O)Nc4ccc(Br)cc43)nc(NCCCN(C)C)nc2n1 (stereo not drawn) [Example 233, 5-Bromo-3-[6-(3-dimethylamino-propylamino)-2-(2-methoxy-ethyl)-2H-pyrazolo [3,4-d]pyrimidin-4-yl]-1,3-dihydro-indol-2-one] | < 300 nM | < 300 nM | 297 to 298 °C |  |  |  |  |
| COCCn1cc2c(C3C(=O)Nc4ccc(Br)cc43)nc(NCCN3CCOCC3)nc2n1 (stereo not drawn) [Example 234, 5-Bromo-3-[2-(2-methoxy-ethyl)-6-(2-morpholin-4-yl-ethylamino)-2H-pyrazolo[3,4-d]pyrimidin-4-yl]-1,3-dihydro-indol-2-one] | < 300 nM | < 300 nM | > 300 °C |  |  |  |  |
| COCCNc1nc(C2C(=O)Nc3ccc(Br)cc32)c2cn(CCOC)nc2n1 (stereo not drawn) [Example 235, 5-Bromo-3-[2-(2-methoxy-ethyl)-6-(2-methoxy-ethylamino)-2H-pyrazolo [3,4-d]pyrimidin-4-yl]-1,3-dihydro-indol-2-one] | < 300 nM | < 300 nM | > 300 °C |  |  |  |  |
| CCOCCn1cc2c(C3C(=O)Nc4ccc(Br)cc43)nc(Cl)nc2n1 (stereo not drawn) [Example 236, 5-Bromo-3-[6-chloro-2-(2-ethoxy-ethyl)-2H-pyrazolo [3,4-d]pyrimidin-4-yl)-1,3-dihydro-indol-2-one] | > 10000 nM | > 10000 nM | 260 to 263 °C |  |  |  |  |
| CCOCCn1cc2c(C3C(=O)Nc4ccc(Br)cc43)nc(NCCN(C)C)nc2n1 (stereo not drawn) [Example 237, 5-Bromo-3-[6-(2-dimethylamino-ethylamino)-2-(2-ethoxy-ethyl)2H-pyrazolo[3,4-d]pyrimidin-4-yl]-1,3-dihydro-indol-2-one] | < 300 nM | < 300 nM | 247 to 251 °C |  |  |  |  |
| CCOCCn1cc2c(C3C(=O)Nc4ccc(Br)cc43)nc(NC[C@H](C)O)nc2n1 (stereo partly drawn) [Example 238, 5-Bromo-3-[2-(2-ethoxy-ethyl)-6-((S)-2-hydroxy-propylamno)-2H-pyrazolo[3,4-d]pyrimidin-4-yl]-1,3-dihydro-indol-2-one] | < 300 nM | < 300 nM | 297 to 299 °C |  |  |  |  |
| CCOCCn1cc2c(C3C(=O)Nc4ccc(Br)cc43)nc(NC[C@@H](C)O)nc2n1 (stereo partly drawn) [Example 239, 5-Bromo-3-[2-(2-ethoxy-ethyl)-6-((R)-2-hydroxy-propylamino)-2H-pyrazolo[3,4-d]pyrimidin-4-yl]-1,3-dihydro-indol-2-one] | < 300 nM | < 300 nM | 298 to 300 °C |  |  |  |  |
| CCOCCn1cc2c(C3C(=O)Nc4ccc(Br)cc43)nc(NCCN3CCOCC3)nc2n1 (stereo not drawn) [Example 240, 5-Bromo-3-[2-(2-ethoxy-ethyl)-6-(2-morpholin-4-yl-ethylamino)-2H-pyrazolo [3,4-d]pyrimidin-4-yl]-1,3-dihydro-indol-2-one] | < 300 nM | < 300 nM | 276 to 278 °C |  |  |  |  |
| O=C1Nc2ccccc2C1c1nc(NCc2ccncc2)nc2nn(C3CCCC3)cc12 (stereo not drawn) [Example 241, 3-{2-Cyclopentyl-6-[(pyridin-4-ylmethyl)-amino]-2H-pyrazolo[3,4-d]pyrimidin-4-yl}-1,3-dihydro-indol-2-one] | 300 to 3000 nM | < 300 nM | 198 to 200 °C |  |  |  |  |
| O=C1Nc2ccccc2C1c1nc(NCCc2ccccn2)nc2nn(C3CCCC3)cc12 (stereo not drawn) [Example 242, 3-[2-Cyclopentyl-6-(2-pyridin-2-yl-ethylamino)-2H-pyrazolo[3,4-d]pyrimidin-4-yl]-1,3-dihydro-indol-2-one] |  | 300 to 3000 nM | 246 to 248 °C | 43% |  |  |  |
| C=CCNc1nc(C2C(=O)Nc3ccccc32)c2cn(C3CCCC3)nc2n1 (stereo not drawn) [Example 243, 3-(6-Allylamino-2-cyclopentyl-2H-pyrazolo[3,4-d]pyrimidin-4-yl)-1,3-dihydro-indol-2-one] |  |  | > 300 °C | 63% | > 1000 nM |  |  |
| CC(C)CNc1nc(C2C(=O)Nc3ccccc32)c2cn(C3CCCC3)nc2n1 (stereo not drawn) [Example 244, 3-(2-Cyclopentyl-6-isobutylamino-2H-pyrazolo[3,4-d]pyrimidin-4-yl)-1,3-dihydro-indol-2-one] | > 10000 nM |  | 280 to 282 °C |  | > 1000 nM |  |  |
| CC(C)Nc1nc(C2C(=O)Nc3ccccc32)c2cn(C3CCCC3)nc2n1 (stereo not drawn) [Example 245, 3-(2-Cyclopentyl-6-isopropylamino-2H-pyrazolo[3,4-d]pyrimidin-4-yl)-1,3-dihydro-indol-2-one] | > 10000 nM |  | 303 to 305 °C |  | > 3000 nM |  |  |
| O=C1Nc2ccc(C(F)(F)F)cc2C1c1nc(NCc2ccncc2)nc2nn(C3CCCC3)cc12 (stereo not drawn) [Example 246, 3-{2-Cyclopentyl-6-[(pyridin-4-ylmethyl)-amino]-2H-pyrazolo[3,4-d]pyrimidin-4-yl}-5-trifluoromethyl-1,3-dihydro-indol-2-one] |  | < 300 nM | > 300 °C |  |  | > 3000 nM |  |
| O=C1Nc2ccc(C(F)(F)F)cc2C1c1nc(NCCc2ccccn2)nc2nn(C3CCCC3)cc12 (stereo not drawn) [Example 247, 3-[2-Cyclopentyl-6-(2-pyridin-2-yl-ethylamino)-2H-pyrazolo[3,4-d]pyrimidin-4-yl]-5-trifluoromethyl-1,3-dihydro-indol-2-one] | > 10000 nM | < 300 nM | > 300 °C |  |  |  |  |
| C=CCNc1nc(C2C(=O)Nc3ccc(C(F)(F)F)cc32)c2cn(C3CCCC3)nc2n1 (stereo not drawn) [Example 248, 3-(6-Allylamino-2-cyclopentyl-2H-pyrazolo[3,4-d]pyrimidin-4-yl)-5-trifluoromethyl-1,3-dihydro-indol-2-one] | > 10000 nM | < 300 nM | > 300 °C |  |  |  |  |
| CC(C)CNc1nc(C2C(=O)Nc3ccc(C(F)(F)F)cc32)c2cn(C3CCCC3)nc2n1 (stereo not drawn) [Example 249, 3-(2-Cyclopentyl-6-isobutylamino-2H-pyrazolo[3,4-d]pyrimidin-4-yl)-5-trifluoromethyl-1,3-dihydro-indol-2-one] | > 10000 nM |  | 282 to 285 °C |  |  |  | 52% @10 μM |
| CC(C)Nc1nc(C2C(=O)Nc3ccc(C(F)(F)F)cc32)c2cn(C3CCCC3)nc2n1 (stereo not drawn) [Example 250, 3-(2-Cyclopentyl-6-isopropylamino-2H-pyrazolo[3,4-d]pyrimidin-4-yl)-5-trifluoromethyl-1,3-dihydro-indol-2-one] | > 10000 nM | < 300 nM | 299 to 301 °C |  |  |  |  |
| CN(C)CCNc1nc(C2C(=O)Nc3ccc(C(F)(F)F)cc32)c2cn(C3CCCC3)nc2n1 (stereo not drawn) [Example 251, 3-[2-Cyclopentyl-6-(2-dimethylamino-ethylamino)-2H-pyrazolo[3,4-d]pyrimidin-4-yl]-5-trifluoromethyl-1,3-dihydro-indol-2-one] |  | < 300 nM | 211 to 213 °C |  |  | > 3000 nM |  |
| Cl.NCCNc1nc(C2C(=O)Nc3ccc(C(F)(F)F)cc32)c2cn(C3CCCC3)nc2n1 (stereo not drawn) [Example 252, 3-[6-(2-Amino-ethylamino)-2-cyclopentyl-2H-pyrazolo[3,4-d]pyrimidin-4-yl]-5-trifluoromethyl-1,3-dihydroindol-2-one hydrochloride salt] | 300 to 3000 nM | < 300 nM | 290 to 293 °C |  |  |  |  |
| Cl.NCCCNc1nc(C2C(=O)Nc3ccc(C(F)(F)F)cc32)c2cn(C3CCCC3)nc2n1 (stereo not drawn) [Example 254, 3-[6-(3-Amino-propylamino)-2-cyclopentyl-2H-pyrazolo[3,4-d]pyrimidin-4-yl]-5-trifluoromethyl-1,3-dihydro-indol-2-one hydrochloride salt] | 300 to 3000 nM | < 300 nM | 304 to 306 °C |  |  |  |  |
| CC(C)Cn1cc2c(C3C(=O)Nc4ccc(Cl)cc43)nc(Cl)nc2n1 (stereo not drawn) [Example 261, 5-Chloro-3-(6-chloro-2-isobutyl-2H-pyrazolo[3,4-d]pyrimidin-4-yl)-1,3-dihydro-indol-2-one] | > 10000 nM |  | 284 °C (dec.) |  | > 3000 nM |  |  |
| CC(C)Cn1cc2c(C3C(=O)Nc4ccc(Br)cc43)nc(Cl)nc2n1 (stereo not drawn) [Example 262, 5-Bromo-3-(6-chloro-2-isobutyl-2H-pyrazolo[3,4-d]pyrimidin-4-yl)-1,3-dihydro-indol-2-one] | > 10000 nM |  | 295 °C (dec.) |  | > 3000 nM |  |  |
| COCCNc1nc(C2C(=O)Nc3ccc(Br)cc32)c2cn(CC(C)C)nc2n1 (stereo not drawn) [Example 263, 5-Bromo-3-[2-isobutyl-6-(2-methoxy-ethylamino)-2H-pyrazolo[3,4-d]pyrimidin-4-yl]-1,3-dihydro-indol-2-one] | < 300 nM | < 300 nM | 294 to 296.8 °C |  |  |  |  |
| CC(C)Cn1cc2c(C3C(=O)Nc4ccc(Br)cc43)nc(NCCN3CCOCC3)nc2n1 (stereo not drawn) [Example 264, 5-Bromo-3-[2-isobutyl-6-(2-morpholin-4-yl-ethylamino)-2H-pyrazolo[3,4-d]pyrimidin-4-yl]-1,3-dihydro-indol-2-one] | < 300 nM | < 300 nM | 282 to 287 °C |  |  |  |  |
| CC(C)Cn1cc2c(C3C(=O)Nc4ccc(Br)cc43)nc(NCCCN3CCOCC3)nc2n1 (stereo not drawn) [Example 265, 5-Bromo-3-[2-isobutyl-6-(3-morpholin-4-yl-propylamino)-2H-pyrazolo [3,4-d]pyrimidin-4-yl]-1,3-dihydro-indol-2-one] | < 300 nM | < 300 nM | 271 to 274 °C |  |  |  |  |
